Laboratory results reported in patent publication US12258342B2, “Class of DNA gyrase and/or topoisomerase IV inhibitors with activity against gram-positive and gram-negative bacteria” (Univerza v Ljubljani, priority 2018, dated 2025).
In brackets after ≈: the same amount, converted by molar mass.

Experiments:
E. coli DNA gyrase = E. coli DNA gyrase (Escherichia coli (strain K12), UniProt P0AES6); assay: DNA gyrase inhibition assay (Inspiralis, streptavidin-coated plates); assay type: biochemical
Method: Inhibitory activities for compounds of the present invention were determined on E. coli and S. aureus DNA gyrase and topoisomerase IV in an assay from Inspiralis on streptavidin-coated 96-well microtiter plates from Thermo scientific Pierce. […] After washing off the unbound oligonucleotide, the enzyme test was performed. […] Reaction solutions were incubated at 37° C. for 30 min. After that, the TF buffer (50 mM NaOAc with pH 5.0, 50 mM NaCl and 50 mM MgCl2) was added to terminate the enzymatic reaction. After additional incubation for 30 min at rt, during which biotin-oligonucleotide-plasmid triplex was formed, the unbound plasmid was washed off using TF buffer and SybrGOLD in T10 buffer (10 mM Tris HCl with pH 8.0 and 1 mM EDTA) was added. […] GraphPad Prism 6.0 software was used to calculate the IC50 values. The result is given as the average value of three independent measurements. […] Chemoth.

E. coli ATCC 25922 = assay: Microbroth dilution MIC (CLSI); conditions: Escherichia coli, ATCC25922, read-out: MIC (μg/mL) E. coli ATCC 25922
S. aureus ATCC 29213 = assay: Microbroth dilution MIC (CLSI); conditions: Staphylococcus aureus, ATCC29213, read-out: MIC (μg/mL) S. aureus ATCC 29213
E. faecium ATCC 35667 = assay: Microbroth dilution MIC (CLSI); conditions: Enterococcus faecium, ATCC35667, read-out: MIC (μg/mL) E. faecium ATCC 35667
E. faecalis ATCC 29212 = assay: Microbroth dilution MIC (CLSI); conditions: Enterococcus faecalis, ATCC29212, read-out: MIC (μg/mL) E. faecalis ATCC 29212

SMILES | IC50 (E. coli DNA gyrase) | MIC (E. coli ATCC 25922) | MIC (S. aureus ATCC 29213) | MIC (E. faecium ATCC 35667) | MIC (E. faecalis ATCC 29212)
O=C(O)c1ccc2nc(NC(=O)c3cc(Br)c(Br)[nH]3)sc2c1 [Example 2, 2-(4,5-dibromo-1H-pyrrole-2-carboxamido)benzo[d]thiazole-6-carboxylic acid] | 12 ± 7 nM | > 64 µg/mL | > 64 µg/mL | 5.56 µg/mL (≈ 12.5 µM) | 2.78 µg/mL (≈ 6.25 µM)
O=C(O)c1ccc2nc(NC(=O)c3cc(Cl)c(Cl)[nH]3)sc2c1 [Example 3, 2-(4,5-dichloro-1H-pyrrole-2-carboxamido)benzo[d]thiazole-6-carboxylic acid] | 19 ± 1 nM | > 64 µg/mL | > 64 µg/mL | 17.8 µg/mL (≈ 50 µM) | 8.9 µg/mL (≈ 25 µM)
Cc1[nH]c(C(=O)Nc2nc3cc(C(=O)O)ccc3s2)c(Cl)c1Cl [Example 4, 2-(3,4-dichloro-5-methyl-1H-pyrrole-2-carboxamido)benzo[d]thiazole-5-carboxylic acid] | 830 ± 150 nM | > 64 µg/mL | > 64 µg/mL | > 64 µg/mL | > 64 µg/mL
Cc1[nH]c(C(=O)Nc2nc3c(F)cc(C(=O)O)cc3s2)c(Cl)c1Cl [Example 5, 2-(3,4-dichloro-5-methyl-1H-pyrrole-2-carboxamido)-4-fluorobenzo[d]thiazole-6-carboxylic acid] | < 5 nM | 16 µg/mL (≈ 41.2 µM) | 1 µg/mL (≈ 2.58 µM) | 0.61 µg/mL (≈ 1.57 µM) | 0.0625 µg/mL (≈ 0.161 µM)
O=C(O)c1cc(O)c2nc(NC(=O)c3cc(Br)c(Br)[nH]3)sc2c1 [Example 6, 2-(4,5-dibromo-1H-pyrrole-2-carboxamido)-4-hydroxybenzo[d]thiazole-6-carboxylic acid] | 46 ± 33 nM | > 64 µg/mL | > 64 µg/mL | > 64 µg/mL | 32 µg/mL (≈ 69.4 µM)
Cc1[nH]c(C(=O)Nc2nc3c(O)cc(C(=O)O)cc3s2)c(Cl)c1Cl [Example 7, 2-(3,4-dichloro-5-methyl-1H-pyrrole-2-carboxamido)-4-hydroxybenzo[d]thiazole-6-carboxylic acid] | < 5 nM | > 64 µg/mL | 16 µg/mL (≈ 41.4 µM) | 1.21 µg/mL (≈ 3.13 µM) | 2 µg/mL (≈ 5.18 µM)
COc1cc(C(=O)O)cc2sc(NC(=O)c3[nH]c(C)c(Cl)c3Cl)nc12 [Example 8, 2-(3,4-dichloro-5-methyl-1H-pyrrole-2-carboxamido)-4-methoxybenzo[d]thiazole-6-carboxylic acid] | 7.6 ± 3.4 nM | 64 µg/mL (≈ 160 µM) | 2 µg/mL (≈ 5 µM) | 1.25 µg/mL (≈ 3.12 µM) | 0.25 µg/mL (≈ 0.625 µM)
Cc1[nH]c(C(=O)Nc2nc3c(OCCN)cc(C(=O)O)cc3s2)c(Cl)c1Cl.Cl [Example 11, 2-((6-carboxy-2-(3,4-dichloro-5-methyl-1H-pyrrole-2-carboxamido)benzo[d]thiazol-4-yl)oxy)ethan-1-aminium chloride] | < 5 nM | > 64 µg/mL | > 64 µg/mL | > 64 µg/mL | > 64 µg/mL
Cc1[nH]c(C(=O)Nc2nc3c(OCCN4CCOCC4)cc(C(=O)NCC#N)cc3s2)c(Cl)c1Cl.Cl [Example 25, 4-(2-((6-((cyanomethyl)carbamoyl)-2-(3,4-dichloro-5-methyl-1H-pyrrole-2-carboxamido)benzo[d]thiazol-4-yl)oxy)ethyl)morpholin-4-ium chloride] | < 5 nM | > 64 µg/mL | > 64 µg/mL | – | > 64 µg/mL
Cc1[nH]c(C(=O)Nc2nc3ccc(C(=O)NCC#N)cc3s2)c(Cl)c1Cl [Example 26, N-(cyanomethyl)-2-(3,4-dichloro-5-methyl-1H-pyrrole-2-carboxamido)benzo[d]thiazole-6-carboxamide] | 16 ± 4 nM | > 64 µg/mL | > 64 µg/mL | – | > 64 µg/mL
Cc1[nH]c(C(=O)Nc2nc3c(OCc4ccccc4)cc(C(=O)NCC#N)cc3s2)c(Cl)c1Cl [Example 27, 4-(benzyloxy)-N-(cyanomethyl)-2-(3,4-dichloro-5-methyl-1H-pyrrole-2-carboxamido)benzo[d]thiazole-6-carboxamide] | 5.4 ± 2 nM | > 64 µg/mL | 4 µg/mL (≈ 7.78 µM) | – | 16 µg/mL (≈ 31.1 µM)
Cc1[nH]c(C(=O)Nc2nc3c(OCc4ccccc4)cc(C(N)=O)cc3s2)c(Cl)c1Cl [Example 28, 4-(benzyloxy)-2-(3,4-dichloro-5-methyl-1H-pyrrole-2-carboxamido)benzo[d]thiazole-6-carboxamide] | 11 ± 2 nM | > 64 µg/mL | > 64 µg/mL | – | > 64 µg/mL
Cc1[nH]c(C(=O)Nc2nc3c(OCc4ccccc4)cc(-c4nnn[nH]4)cc3s2)c(Cl)c1Cl [Example 29, N-(4-(benzyloxy)-6-(1H-tetrazol-5-yl)benzo[d]thiazol-2-yl)-3,4-dichloro-5-methyl-1H-pyrrole-2-carboxamide] | – | > 64 µg/mL | 4 µg/mL (≈ 7.99 µM) | – | 0.125 µg/mL (≈ 0.25 µM)
COC(=O)c1cc(N2CC[C@H](NC(=O)OC(C)(C)C)C2)c2nc(NC(=O)c3[nH]c(C)c(Cl)c3Cl)sc2c1 [Example 33, methyl (S)-4-(3-((tert-butoxycarbonyl)amino)pyrrolidin-1-yl)-2-(3,4-dichloro-5-methyl-1H-pyrrole-2-carboxamido)benzo[d]thiazole-6-carboxylate] | > 10000 nM | ≥ 32 µg/mL | ≥ 32 µg/mL | – | ≥ 32 µg/mL
COC(=O)c1cc(N2CC[C@H](N)C2)c2nc(NC(=O)c3[nH]c(C)c(Cl)c3Cl)sc2c1.Cl [Example 34, (S)-1-(2-(3,4-dichloro-5-methyl-1H-pyrrole-2-carboxamido)-6-(methoxycarbonyl)benzo[d]thiazol-4-yl)pyrrolidin-3-aminium chloride] | 48 ± 9 nM | ≥ 32 µg/mL | ≥ 32 µg/mL | – | ≥ 32 µg/mL
Cc1[nH]c(C(=O)Nc2nc3c(N4CC[C@H](NC(=O)OC(C)(C)C)C4)cc(C(=O)O)cc3s2)c(Cl)c1Cl [Example 35, (S)-4-(3-((tert-butoxycarbonyl)amino)pyrrolidin-1-yl)-2-(3,4-dichloro-5-methyl-1H-pyrrole-2-carboxamido)benzo[d]thiazole-6-carboxylic acid] | < 5 nM | ≥ 32 µg/mL | 0.25 µg/mL (≈ 0.451 µM) | – | 0.0312 µg/mL (≈ 0.0564 µM)
Cc1[nH]c(C(=O)Nc2nc3c(N4CC[C@H](N)C4)cc(C(=O)O)cc3s2)c(Cl)c1Cl.Cl [Example 36, (S)-1-(6-carboxy-2-(3,4-dichloro-5-methyl-1H-pyrrole-2-carboxamido)benzo[d]thiazol-4-yl)pyrrolidin-3-aminium chloride] | < 5 nM | ≥ 32 µg/mL | 4 µg/mL | – | 0.5 µg/mL
O=C(O)c1cc(OCc2cc(=O)c(O)c[nH]2)c2nc(NC(=O)c3cc(Br)c(Br)[nH]3)sc2c1 [Example 38, 2-(4,5-dibromo-1H-pyrrole-2-carboxamido)-4-((5-hydroxy-4-oxo-1,4-dihydropyridin-2-yl)methoxy)benzo[d]thiazole-6-carboxylic acid] | – | > 64 µg/mL | > 64 µg/mL | – | > 64 µg/mL
O=C(OCc1cc(=O)c(O)co1)c1ccc2nc(NC(=O)c3cc(Br)c(Br)[nH]3)sc2c1 [Example 39, (5-hydroxy-4-oxo-4H-pyran-2-yl)methyl 2-(4,5-dibromo-1H-pyrrole-2-carboxamido)benzo[d]thiazole-6-carboxylate] | 1400 ± 20 nM | > 64 µg/mL | > 64 µg/mL | > 64 µg/mL | –
O=C(OCc1cc(=O)c(O)c[nH]1)c1ccc2nc(NC(=O)c3cc(Br)c(Br)[nH]3)sc2c1 [Example 40, (5-hydroxy-4-oxo-1,4-dihydropyridin-2-yl)methyl 2-(4,5-dibromo-1H-pyrrole-2-carboxamido)benzo[d]thiazole-6-carboxylate] | 1700 ± 360 nM | > 64 µg/mL | > 64 µg/mL | > 64 µg/mL | –
Cc1[nH]c(C(=O)N(c2nc3ccc(C(=O)O)cc3s2)C(C)C)c(Cl)c1Cl [Example 41, 2-(3,4-dichloro-N-isopropyl-5-methyl-1H-pyrrole-2-carboxamido)benzo[d]thiazole-6-carboxylic acid] | 320 ± 70 nM | ≥ 32 µg/mL | 32 µg/mL (≈ 77.6 µM) | – | 32 µg/mL (≈ 77.6 µM)
Cc1[nH]c(C(=O)N(c2nc3ccc(C(=O)O)cc3s2)C2CC2)c(Cl)c1Cl [Example 42, 2-(3,4-dichloro-N-cyclopropyl-5-methyl-1H-pyrrole-2-carboxamido)benzo[d]thiazole-6-carboxylic acid] | 24 ± 1 nM | > 64 µg/mL | 2 µg/mL (≈ 4.87 µM) | – | 0.25 µg/mL (≈ 0.609 µM)
CCN(C(=O)c1[nH]c(C)c(Cl)c1Cl)c1nc2ccc(C(=O)O)cc2s1 [Example 43, 2-(3,4-dichloro-N-ethyl-5-methyl-1H-pyrrole-2-carboxamido)benzo[d]thiazole-6-carboxylic acid] | 7.2 ± 2 nM | 32 µg/mL (≈ 80.3 µM) | 0.13 µg/mL (≈ 0.326 µM) | – | 0.13 µg/mL (≈ 0.326 µM)
Cc1[nH]c(C(=O)Nc2nc3ccc(C(=O)O)cc3s2)c(Cl)c1Br [Example 45, 2-(4-bromo-3-chloro-5-methyl-1H-pyrrole-2-carboxamido) benzo[d]thiazole-6-carboxylic acid] | < 5 nM | > 64 µg/mL | 0.13 µg/mL (≈ 0.314 µM) | – | 0.0625 µg/mL (≈ 0.151 µM)
